Test results reported in patent publication US4405609A, “Combination and method for increasing feed utilization efficiency in ruminants” (Eli Lilly and Company, priority 1982, dated 1983).

Assays:
[1] = system: Hereford crossbred steers; test: 140-day narasin/actaplanin feed study; assay type: in vivo
From the text: Another study was designed to show the unexpected interaction of the polyether narasin in combination with actaplanin. Two hundred forty Hereford crossbred steers averaging about 700 pounds and about 18 months of age were employed. The animals were fed corn silage and high moisture corn, plus two pounds per head per day of the following cattle supplement:
The treatments comprised three dose levels of narasin (0, 4 and 12 g./T.) and four dose levels of actaplanin (0, 10, 20 and 40 g./T.). The animals were randomly assigned to four blocks of twelve partially sheltered pens, each with five animals per pen. The treatments were allotted at random within the four 12-pen blocks such that each treatment was represented in each block. Each of the twelve treatments was replicated four times.

rumen fluid = test: in vitro rumen fluid fermentor assay of propionate production; assay type: cell-based, steers; settings: ± SD
From the text: Rumen fluid was obtained from steers which had surgically-installed fistula openings into the rumen. The steers were maintained on a high-grain ration such as the one described above.
A sample of rumen fluid was strained through four layers of cheese cloth and the eluate was collected in vacuum bottles. The particulate matter retained by the cheese cloth was resuspended in enough physiological buffer to return it to the original volume of the rumen fluid, and the eluate was strained again. The buffer utilized is described by Cheng et al., J. Dairy Sci., 38, 1225 (1955).
The two eluates were combined in a separatory funnel and allowed to stand until any remaining particulate matter separated to the top. The clear liquid layer then was removed, diluted with an equal volume of the above-mentioned buffer, and the pH of the solution was adjusted to 7.0.
Fermenter flasks were then changed with the rumen liquor thus prepared. Two fermentor flasks were used per each treatment group. The fermentor flasks were allowed to stand for four days for equilibration, and then measurements of proprionate production were made daily for six days in order to establish a control. Measurements were made by gas chromatographic methods. The fermenter flasks were then fed 20 grams per day of a finely ground ration composed of 20 percent high concentrate ration and 80 percent alfalfa hay. The individual feed efficiency enhancers, and the composition of such enhancers provided by this invention, were added to the feed and dried thereon prior to introduction of the feed ration into the fermentor flasks. The feed ration was introduced into the flasks approximately two times each day. After the initial administration of active ingredient, two days were allowed for reequilibration, and then the volatile fatty acid (VFA) production in each flask was monitored by gas chromatography for five days.

steers [2] = test: combined data of the three steer studies, percentage response versus untreated controls; assay type: in vivo
From the text: The following figures report such data expressed as a percentage response when compared with untreated control animals.

[3] = dose giving largest increase in propionate production
From the text: The compositions provided herein comprise a polyether as defined above and a glycopeptide as defined above. The respective components will be present on a weight basis in a ratio of about 1 to about 10 parts polyether together with about 1 to about 10 parts glycopeptide. For example, a polyether such as narasin will be employed at a concentration level of about 1 to about 20 grams per ton of ruminant feedstuff, together with a glycopeptide such as avoparcin or actaplanin at a concentration level of about 5 to about 50 grams per ton of ruminant feedstuff. A particularly preferred embodiment of the invention is a combination of narasin at about 2 to about 10 grams per ton of feedstuff, and actaplanin at about 5 to about 20 grams per ton. […] Typically, the maximal doses of each component to be employed in accordance with the present invention are substantially the same as the maximal doses for effective growth promotion and feed utilization enhancement by the individual components. […] Similarly, actaplanin at a dose of about 30 grams per ton of feed effects the largest increase in propionate production observed with that agent. […]

steers [4] = test: further analysis of feed efficiency data: expected versus observed change; assay type: in vivo
From the text: When the components are utilized in amounts that are about their respective optimal dose levels when used alone, the combination causes an unexpected increase in feed utilization efficiency, which is believed the result of continued unexpected interaction. The results of this further analysis of data is presented below:
In the foregoing table, Δ is the change in feed efficiency of the treated group over the nontreated group. […] The change in efficiency is thus 0.14. The term "EΔ" is the change in efficiency expected with a combination, and is arrived at by adding the Δ values of the individual components at the appropriate dose levels. The term "OΔ" is the change in efficiency over nontreated controls actually observed with animals receiving the combination.

feeder calves = test: in vivo evaluation of monensin and actaplanin in feeder calves on high-grain ration; settings: 30 grams per ton of each agent in feed
From the text: For example, in a typical in vivo evaluation of the combination of monensin and actaplanin, feeder calves were fed a high-grain ration such as that recited above. Fifteen control animals received the feed ration with no feed efficiency enhancer additive. Another group of fifteen calves received the feed ration containing monensin at 30 grams per ton, while a third group of fifteen animals received the feed ration with actaplanin at 30 grams per ton. A combination of 30 grams per ton of monensin and 30 grams per ton of actaplanin was administered as a feed additive to the ration consumed by a fourth group of fifteen test animals. […] The feed efficiency of such control group, calculated as the pounds of feed consumption required for one pound of animal weight gain, was 13.49.

[5] = system: Hereford crossbred steers; test: 140-day monensin/actaplanin feed study, corn silage diet; assay type: in vivo
Protocol: The animals were divided into a control group and into eleven test groups. All animals were fed a corn silage diet ad libitum once daily throughout the 140-day study, plus two pounds per head per day of the following cattle supplement:
Test compounds were formulated as a premix with 50 percent by weight of ground corn cobs and 48 percent by weight of ground corn. The premixes were added to the corn silage feed rations in amounts necessary to provide the desired doses of active ingredients to the test animals. The data are presented as the average for the entire group of animals receiving a particular dose of active agent.
In the foregoing table, the Feed Efficiency value is calculated by dividing the average amount of feed consumed (pounds of dry matter intake) by the average daily gain in weight (in pounds). Ideally, the animals will gain more weight on less feed intake. Accordingly, the most improvement in feed utilization efficiency is represented by smaller numbers. […] The optimum in this experiment was 10 g./T. of monensin and 40 g./T. of actaplanin which produced a 13.5% improvement in feed efficiency over untreated controls.

[6] = system: Hereford crossbred steers; test: 154-day trial of monensin (30 g./T.) with actaplanin; assay type: in vivo
From the text: In another study, two hundred Hereford crossbred steers averaging about 565 pounds were employed in a 154-day trial to determine the efficacy of combinations of monensin (at 30 g./T.) and actaplanin (at 20 g./T., 40 g./T. and 60 g./T.). The steers were fed a corn silage or corn-soya-cob roughage diet ad libitum once a day, together with a cattle supplement. The animals were divided into five treatment groups of forty steers each. These treatment groups were maintained in open pens; five animals per pen so that each treatment group comprised eight pens. Individual treatments were then assigned at random to each of the eight pens so that each treatment was replicated […] within each ration group.

ruminants = settings: Raun et al., J. Ani. Sci. 43, 670 (1976); cited from earlier work
[7] = polyether 0, actaplanin 10 g./T.
[8] = polyether 0, actaplanin 20 g./T.
[9] = polyether 0, actaplanin 40 g./T.
[10] = monensin 0, actaplanin 10 grams/Ton
[11] = monensin 0, actaplanin 20 grams/Ton
[12] = monensin 0, actaplanin 40 grams/Ton
[13] = monensin 30, actaplanin 0 grams/Ton
[14] = monensin 10, actaplanin 0 grams/Ton

## CC[C@@H](C(=O)O)[C@@H]1O[C@@H]([C@@H](C)[C@H](O)[C@H](C)C(=O)[C@H](CC)[C@H]2O[C@]3(C=C[C@@H](O)[C@]4(CC[C@@](C)([C@H]5CC[C@](O)(CC)[C@H](C)O5)O4)O3)[C@H](C)C[C@@H]2C)[C@@H](C)C[C@@H]1C [narasin]
[1]; narasin 4, actaplanin 0 g./T.
  Average Daily Dry Matter Intake: 16.41 Pounds
  Average Daily Weight Gain: 2.53 Pounds
  Average Feed Efficiency: 6.46
[1]; narasin 12, actaplanin 0 g./T.
  Average Daily Dry Matter Intake: 15.52 Pounds
  Average Daily Weight Gain: 2.52 Pounds
  Average Feed Efficiency: 6.18
[1]; narasin alone at 12 g./T.
  decrease in feed intake versus untreated controls: 7.2%

## actaplanin
Rumen fluid; Monensin 0 PPM, Actaplanin 1 PPM
  Propionate Production: 13.0 ± 2.0 mM/24 hours
Rumen fluid; Monensin 0 PPM, Actaplanin 4 PPM
  Propionate Production: 19.9 ± 3.0 mM/24 hours
[1]; actaplanin alone at 20 g./T.
  feed intake (in words): slight decrease in feed intake
  improved daily gains: 5.9%
[1]; narasin 0, actaplanin 10 g./T.
  Average Daily Dry Matter Intake: 16.47 Pounds
  Average Daily Weight Gain: 2.54 Pounds
  Average Feed Efficiency: 6.47
[1]; narasin 0, actaplanin 20 g./T.
  Average Daily Dry Matter Intake: 16.51 Pounds
  Average Daily Weight Gain: 2.66 Pounds
  Average Feed Efficiency: 6.19
[1]; narasin 0, actaplanin 40 g./T.
  Average Daily Dry Matter Intake: 16.02 Pounds
  Average Daily Weight Gain: 2.59 Pounds
  Average Feed Efficiency: 6.18
Steers [2]; [7]
  Combined Daily Gain Data, percentage response compared with untreated control: 5.5 percentage
  Combined Feed Efficiency Data, percentage response compared with untreated control: 1.3 percentage
Steers [2]; [8]
  Combined Daily Gain Data, percentage response compared with untreated control: 6.6 percentage
  Combined Feed Efficiency Data, percentage response compared with untreated control: 4.4 percentage
Steers [2]; [9]
  Combined Daily Gain Data, percentage response compared with untreated control: 6.3 percentage
  Combined Feed Efficiency Data, percentage response compared with untreated control: 5.8 percentage
[3]
  dose that effects the largest increase in propionate production observed with that agent: about 30 grams per ton of feed
Steers [4]; actaplanin 10 g./T. alone
  Δ, change in feed efficiency of the treated group over the nontreated group: 0.09
Steers [4]; actaplanin 20 g./T. alone
  Δ, change in feed efficiency of the treated group over the nontreated group: 0.28
Steers [4]; actaplanin 40 g./T. alone
  Δ, change in feed efficiency of the treated group over the nontreated group: 0.36
Steers [4]; monensin 0, actaplanin 10 g./T.
  Feed efficiency (feed to gain ratio): 6.00
Steers [4]; monensin 0, actaplanin 20 g./T.
  Feed efficiency (feed to gain ratio): 5.81
Steers [4]; monensin 0, actaplanin 40 g./T.
  Feed efficiency (feed to gain ratio): 5.73
Feeder calves
  Average Daily Weight Gain: 1.38 pounds
  feed efficiency (pounds of feed consumption required for one pound of animal weight gain): 12.36
[5]; [10]
  Average Daily Dry Matter Intake: 12.86 lbs
  Average Daily Dry Matter Intake % change from control: +4.1%
  Average Daily Weight Gain: 2.44 lbs
  Average Daily Weight Gain % change over control: +9.4%
  Feed Efficiency: 5.28
  Feed Efficiency % change from control: -4.9%
[5]; [11]
  Average Daily Dry Matter Intake: 12.86 lbs
  Average Daily Dry Matter Intake % change from control: +4.1%
  Average Daily Weight Gain: 2.37 lbs
  Average Daily Weight Gain % change over control: +6.3%
  Feed Efficiency: 5.43
  Feed Efficiency % change from control: -2.0%
[5]; [12]
  Average Daily Dry Matter Intake: 12.47 lbs
  Average Daily Dry Matter Intake % change from control: +1.0%
  Average Daily Weight Gain: 2.39 lbs
  Average Daily Weight Gain % change over control: +7.2%
  Feed Efficiency: 5.22
  Feed Efficiency % change from control: -6.1%

## monensin
Rumen fluid; Monensin 0.5 PPM, Actaplanin 0 PPM
  Propionate Production: 14.2 ± 1.7 mM/24 hours
Rumen fluid; Monensin 3 PPM, Actaplanin 0 PPM
  Propionate Production: 18.4 ± 3.2 mM/24 hours
[6]; [13]
  Average Daily Dry Matter Intake: 16.79 lbs
  Average Daily Weight Gain: 2.41 lbs
  Feed Efficiency: 7.01
[6]; monensin alone (30 g./T.)
  increase in feed efficiency versus control: 6.4%
Steers [4]; monensin 10 g./T. alone
  Δ, change in feed efficiency of the treated group over the nontreated group: 0.14
Steers [4]; monensin 10 g./T., actaplanin 0
  Feed efficiency (feed to gain ratio): 5.95
Steers [4]; monensin 30 g./T. alone
  Δ, change in feed efficiency of the treated group over the nontreated group: 0.39
Steers [4]; monensin 30 g./T., actaplanin 0
  Feed efficiency (feed to gain ratio): 5.70
ruminants
  dosage level of maximal improvement in feed efficiency: about 33 ppm
  dose level of maximal improvement in feed efficiency: about 30 grams per ton of feed
Feeder calves
  Average Daily Weight Gain: 1.42 pounds
  feed efficiency (pounds of feed consumption required for one pound of animal weight gain): 12.05
[5]; [14]
  Average Daily Dry Matter Intake: 13.54 lbs
  Average Daily Dry Matter Intake % change from control: +9.6%
  Average Daily Weight Gain: 2.45 lbs
  Average Daily Weight Gain % change over control: +9.9%
  Feed Efficiency: 5.52
  Feed Efficiency % change from control: -0.3%
[5]; [13]
  Average Daily Dry Matter Intake: 12.94 lbs
  Average Daily Dry Matter Intake % change from control: +4.8%
  Average Daily Weight Gain: 2.39 lbs
  Average Daily Weight Gain % change over control: +7.2%
  Feed Efficiency: 5.42
  Feed Efficiency % change from control: -2.2%
